ChEMBL document CHEMBL5365399, “Design, synthesis and evaluation of new pyrimidine derivatives as EGFRC797S tyrosine kinase inhibitors” (Bioorg Med Chem Lett, 2023)
Calls of active or inactive are those of the source. The calls are words filed in the database; no cut-off is given here.

How the values were obtained:
[1] = (§1) Antiproliferative activity against mouse KC-0116 cells by MTT assay; type: functional, cell-based
[2] = Antiproliferative activity against mouse Ba/F3 EGFR-T790M/C797S/L858R cells; type: functional, cell-based
[3] = Antiproliferative activity against mouse KC-0122 cells by MTT assay; type: functional, cell-based
NCI-H1975 = test: Antiproliferative activity against human NCI-H1975 cells by MTT assay; type: functional, cell-based
HCC827 = test: Antiproliferative activity against human HCC827 cells by MTT assay; type: functional, cell-based
A-431 = test: Antiproliferative activity against human A-431 cells by MTT assay; type: functional, cell-based
[4] = Induction of apoptosis in mouse KC-0116 cells assessed as viable cells at 300 nM measured after 36 hrs by Annexin V/propidium iodide staining based flow cytometry (reference value: 90.66%); type: functional; conditions: read-out: Activity
[5] = Induction of apoptosis in mouse KC-0116 cells assessed as early apoptotic cells at 300 nM measured after 36 hrs by Annexin V/propidium iodide staining based flow cytometry (reference value: 6.85%); type: functional
[6] = Induction of apoptosis in mouse KC-0116 cells assessed as late apoptotic cells at 300 nM measured after 36 hrs by Annexin V/propidium iodide staining based flow cytometry (reference value: 2.47%); type: functional
[7] = Induction of apoptosis in mouse KC-0116 cells assessed as necrotic cells at 300 nM measured after 36 hrs by Annexin V/propidium iodide staining based flow cytometry (reference value: 0.03%); type: functional
KC-0116 [8] = test: as §1; type: functional, cell-based
KC-0116 [9] = test: Induction of apoptosis in mouse KC-0116 cells measured after 36 hrs by Annexin V/propidium iodide staining based flow cytometry; type: functional, cell-based; conditions: dose 0.1-3 µM
KC-0116 [10] = test: Inhibition of EGFR-del19/T790M/C797S in mouse KC-0116 cells assessed as reduction in EGFR phosphorylation measured after 8 hrs by Western blot analysis; type: cell-based; conditions: dose 0.3-3 µM
KC-0116 [11] = test: Inhibition of EGFR-del19/T790M/C797S in mouse KC-0116 cells assessed as reduction in AKT phosphorylation measured after 8 hrs by Western blot analysis; type: cell-based; conditions: dose 0.3-3 µM
[12] = Induction of apoptosis in mouse KC-0116 cells assessed as viable cells at 100 nM measured after 36 hrs by Annexin V/propidium iodide staining based flow cytometry (reference value: 90.66%); type: functional; conditions: read-out: Activity
[13] = Induction of apoptosis in mouse KC-0116 cells assessed as early apoptotic cells at 100 nM measured after 36 hrs by Annexin V/propidium iodide staining based flow cytometry (reference value: 6.85%); type: functional
[14] = Induction of apoptosis in mouse KC-0116 cells assessed as late apoptotic cells at 100 nM measured after 36 hrs by Annexin V/propidium iodide staining based flow cytometry (reference value: 2.47%); type: functional
[15] = Induction of apoptosis in mouse KC-0116 cells assessed as necrotic cells at 100 nM measured after 36 hrs by Annexin V/propidium iodide staining based flow cytometry (reference value: 0.03%); type: functional
KC-0116 [16] = test: Cell cycle arrest in mouse KC-0116 cells assessed as increase in cell population at G2/M-phase at 0.1 to 0.3 uM measured after 48 hrs by flow cytometry; type: functional, cell-based; conditions: dose 0.1-0.3 µM
[17] = Antiproliferative activity against mouse Ba/F3 EGFR-Del19/T790M/C797S cells; type: functional, cell-based

CN1CCN(c2ccc(Nc3ncc(Br)c(N[C@@H]4CCN(S(=O)(=O)C5CC5)C4)n3)cc2)CC1
IC50 [1]: 3010 nM

COc1cc(N2CCC(N3CCN(C)CC3)CC2)ccc1Nc1ncc(Cl)c(Nc2ccccc2P(C)(C)=O)n1 [BRIGATINIB]
IC50 [2]: 5.57 nM
IC50 [1]: 360 nM
IC50 [3]: 440 nM
IC50 (NCI-H1975): 830 nM
IC50 (HCC827): 13 nM
IC50 (A-431): 500 nM
viability at 0.3 µM [4]: 90.8%
Activity [5]: 7.2%
Activity [6]: 1.94%
Activity [7]: 0.02%

CN1CCN(c2ccc(Nc3ncc(-c4ccccc4)c(N[C@H]4CCN(S(=O)(=O)C5CC5)C4)n3)cc2)CC1
IC50 [1]: > 3300 nM

CN1CCN(c2ccc(Nc3ncc4c5ccccc5n(-c5ccc(NC(=O)CN)cc5)c4n3)cc2)CC1
IC50 [1]: > 3300 nM

C=CC(=O)Nc1cc(Nc2nccc(-c3cn(C)c4ccccc34)n2)c(OC)cc1N(C)CCN(C)C [OSIMERTINIB]
IC50 [1]: 1430 nM
IC50 [3]: 1530 nM
IC50 (HCC827): 1 nM

CN1CCN(c2ccc(Nc3ncc(Cl)c(N[C@H]4CC[C@H](O)CC4)n3)cc2)CC1
IC50 [1]: 310 nM

CN1CCN(c2ccc(Nc3ncc(Br)c(NC4CCN(S(C)(=O)=O)CC4)n3)cc2)CC1
IC50 [1]: 940 nM

CN1CCN(c2ccc(Nc3ncc4c5ccccc5n(-c5cccc(NS(C)(=O)=O)c5)c4n3)cc2)CC1
IC50 [1]: > 3300 nM

CN1CCN(c2ccc(Nc3ncc(Br)c(N[C@H]4CCCN(S(=O)(=O)C5CC5)C4)n3)cc2)CC1
IC50 [1]: 2000 nM

CN1CCN(c2ccc(Nc3ncc(Br)c(N[C@H]4CCN(S(=O)(=O)C5CC5)C4)n3)cc2)CC1
IC50 [1]: 1130 nM

CN1CCN(c2ccc(Nc3ncc(Br)c(NC4CCN(S(=O)(=O)C5CC5)CC4)n3)cc2)CC1
IC50 [1]: 1100 nM

CN1CCN(c2ccc(Nc3ncc(Br)c(N[C@@H]4CCCN(S(=O)(=O)C5CC5)C4)n3)cc2)CC1
IC50 [1]: 200 nM
Activity (KC-0116 [8]): Dose-Dependent Effect
IC50 [3]: 210 nM
Activity (KC-0116 [9]): Dose-Dependent Effect
IC50 (NCI-H1975): > 3300 nM
IC50 (HCC827): > 3300 nM
IC50 (A-431): 620 nM
inhibition (KC-0116 [10]): Dose-Dependent Effect
inhibition (KC-0116 [11]): Dose-Dependent Effect
viability at 0.1 µM [12]: 83.9%
Activity [13]: 11.51%
Activity [14]: 4.61%
Activity [15]: 0.01%
viability at 0.3 µM [4]: 80.2%
Activity [5]: 14.6%
Activity [6]: 5.19%
Activity [7]: 0%
Activity (KC-0116 [16]): Active

COc1cc(N2CCC(N3CCN(C)CC3)CC2)c(C)cc1Nc1ncc(Br)c(Nc2ccc3nccnc3c2P(C)(C)=O)n1
IC50 [2]: 0.21 nM
IC50 [17]: 0.16 nM

CN(C)C1CCN(c2ccc(Nc3ncc(Cl)c(N[C@@H]4CCCN(C(=O)CO)C4)n3)cc2)CC1
IC50 [1]: > 3300 nM

CN(C)C1CCN(c2ccc(Nc3ncc(Br)c(N[C@H]4CC[C@H](O)CC4)n3)cc2)CC1
IC50 [1]: 480 nM

CC(=O)N1CCC(Nc2nc(Nc3ccc(N4CCN(C)CC4)cc3)ncc2Br)CC1
IC50 [1]: 950 nM

CN(C)C1CCN(c2ccc(Nc3ncc(Cl)c(N[C@@H]4CCN(S(=O)(=O)C5CC5)C4)n3)cc2)CC1
IC50 [1]: 460 nM

CN1CCN(c2ccc(Nc3ncc(Br)c(Nc4cccc(NC(=O)CN)c4)n3)cc2)CC1
IC50 [1]: 440 nM

CN1CCN(c2ccc(Nc3ncc4c5ccccc5n(-c5cccc(NCCO)c5)c4n3)cc2)CC1
IC50 [1]: > 3300 nM

CN(C)C1CCN(c2ccc(Nc3ncc(Cl)c(N[C@H]4CCN(S(=O)(=O)C5CC5)C4)n3)cc2)CC1
IC50 [1]: > 3300 nM

CN1CCN(c2ccc(Nc3ncc(C(F)(F)F)c(N[C@H]4CC[C@H](O)CC4)n3)cc2)CC1
IC50 [1]: > 3300 nM

CN1CCN(c2ccc(Nc3ncc(Br)c(N[C@H]4CC[C@H](O)CC4)n3)cc2)CC1
IC50 [1]: 240 nM
IC50 [3]: 250 nM
IC50 (NCI-H1975): 580 nM
IC50 (HCC827): 650 nM
IC50 (A-431): > 3300 nM

CN1CCN(c2ccc(Nc3ncc(Br)c(NC4CCOCC4)n3)cc2)CC1
IC50 [1]: 710 nM

CN(C)C1CCN(c2ccc(Nc3ncc(Cl)c(N[C@H]4CCN(C(=O)CO)C4)n3)cc2)CC1
IC50 [1]: > 3300 nM

CN1CCN(c2ccc(Nc3ncc4c5ccc(OC(F)(F)F)cc5n(-c5cccc(NC(=O)CN)c5)c4n3)cc2)CC1
IC50 [1]: > 3300 nM

CN1CCN(c2ccc(Nc3ncc4c5ccccc5n([C@H]5CCN(S(=O)(=O)C6CC6)C5)c4n3)cc2)CC1
IC50 [1]: > 3300 nM

CN(C)C1CCN(c2ccc(Nc3ncc(Cl)c(N[C@H]4CCCN(C(=O)CO)C4)n3)cc2)CC1
IC50 [1]: 1660 nM

CN1CCN(c2ccc(Nc3ncc(-c4ccccc4)c(Nc4cccc(NC(=O)CN)c4)n3)cc2)CC1
IC50 [1]: > 3300 nM

CN1CCN(c2ccc(Nc3ncc(Br)c(NCc4ccccn4)n3)cc2)CC1
IC50 [1]: 1310 nM

CN1CCN(c2ccc(Nc3ncc4c5ccccc5n(-c5cccc(NC(=O)CO)c5)c4n3)cc2)CC1
IC50 [1]: > 3300 nM

CN(C)C1CCN(c2ccc(Nc3ncc(Cl)c(NC4CCN(C(=O)CO)CC4)n3)cc2)CC1
IC50 [1]: 2460 nM
